One test has as its target EryBV (Saccharopolyspora erythraea, UniProt O33939). To be noted: BL21(DE3)/pHL71/pHL50, 100 mg/l 6dEB, 10 μM IPTG, 20 °C, 72 h; TDP-L-mycarose made in the cell.
For another test, the target named is T1, DesIV (Streptomyces venezuelae, UniProt Q9ZGH3).
T1 construct: recombinant from E. coli (pET28/pET21-type vectors)
T1 sequence (Q9ZGH3 1-337): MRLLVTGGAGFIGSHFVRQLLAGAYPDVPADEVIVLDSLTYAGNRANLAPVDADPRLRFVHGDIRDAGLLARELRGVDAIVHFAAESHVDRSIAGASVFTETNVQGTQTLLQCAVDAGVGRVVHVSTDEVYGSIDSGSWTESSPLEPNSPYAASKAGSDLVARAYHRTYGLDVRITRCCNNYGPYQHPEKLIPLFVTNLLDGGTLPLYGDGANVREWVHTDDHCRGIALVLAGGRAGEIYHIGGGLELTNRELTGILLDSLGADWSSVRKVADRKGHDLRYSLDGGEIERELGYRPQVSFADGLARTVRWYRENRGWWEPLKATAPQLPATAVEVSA
Nature of the test: HPLC, UV […] nm. Particulars: 1 mM TDP-D-glucose, 1 mM NAD+, 8 μM DesIV, 100 mM phosphate pH 8.0, 1 mM DTT, 5% glycerol, 25 °C. Type of test: biochemical.

The next test has as its target EryCII/EryCIII (Saccharopolyspora erythraea, UniProt A4F7P3). Particulars: BL21(DE3)/pHL50, 100 mg/l αMEB, 10 μM IPTG, 20 °C, 72 h; TDP-D-desosamine made in the cell.

Molecules are shown by their SMILES.

Take `CC[C@H]1OC(=O)[C@H](C)[C@@H](O)[C@H](C)[C@@H](O)[C@@H](C)C[C@@H](C)C(=O)[C@H](C)[C@@H](O)[C@H]1C` [6dEB]: the “whole-cell conversion to 6-deoxyerythromycin D (with EryCII/EryCIII), B. subtili” value on EryBV was “EryBV, which ordinarily transfers the mycarose sugar onto erythronolide B, is also capable of recognizing 6dEB”.
For the molecule `Cc1cn([C@H]2C[C@H](O)[C@@H](COP(=O)(O)OP(=O)(O)O[C@H]3O[C@H](CO)[C@@H](O)[C@H](O)[C@H]3O)O2)c(=O)[nH]c1=O` [A, TDP-D-glucose], the “HPLC, UV 264 nm” value at DesIV is given as “Conversion of TDP-Glucose to TDP-4-Keto-6-Deoxy-Glucose by DesIV”.
Same read-out and setting: in the case of `Cc1cn([C@H]2C[C@H](O)[C@@H](COP(=O)(O)OP(=O)(O)O[C@H]3O[C@H](C)C(=O)[C@H](O)[C@H]3O)O2)c(=O)[nH]c1=O` [B, TDP-4-keto-6-deoxy-D-glucose] it was “Conversion of TDP-Glucose to TDP-4-Keto-6-Deoxy-Glucose by DesIV”.
As for `CC[C@H]1OC(=O)[C@H](C)[C@@H](O[C@H]2C[C@@](C)(O)[C@@H](O)[C@H](C)O2)[C@H](C)[C@@H](O)[C@](C)(O)C[C@@H](C)C(=O)[C@H](C)[C@@H](O)[C@H]1C` [L, αMEB], on EryCII/EryCIII, the “% conversion” value is given as ~ 25%.

These data come from PMC1790958, “Bioassay-Guided Evolution of Glycosylated Macrolide Antibiotics in Escherichia coli” (PLoS Biology, 2007).
